We go through one molecule from US20170105981A1, “METHODS FOR STABILIZING HYPOXIA INDUCIBLE FACTOR-2 ALPHA AS A METHOD FOR TREATING CANCER” (The Ohio State Innovation Foundation, priority 2011, published 2017).

In assay [1] the test system is phosphoglycerate kinase (PGK) mRNA. Kind of assay: PGK mRNA expression (qPCR) in wild type murine embryonic fibroblasts. In kind it is cell-based. The note with it: hypoxic conditions (1% O2), 1, 10 and 100 μM, vs. hypoxia control, FIG. 2A. On the procedure: (§1) Total RNA was isolated from tissues and cells by using TRIzol™ Reagent (Invitrogen) and the RNeasy kit (Qiagen), respectively. 1 μg RNA was used for reverse transcription using SuperScript II First-Strand Synthersis System (Invitrogen). cDNA's were amplified in a SYR Green or TaqMan Universal Master Mix (Applied Biosystems). Quantitative PCR (qPCR) was performed on ABI Prism 7700 sequence detection system. PCR conditions are: 10 min at 95° C., 40 cycles of 15 seconds at 95° C. and 1 minute at 60° C. The relative amount of mRNA was calculated after normalization to β-actin.
(§2) Cells were cultured in DMEM (#11965-092, Invitrogen) supplemented with 10% fetal bovine serum (Invitrogen), 100 U/mL penicillin and […] streptomycin. For glucose deprivation, DMEM without glucose (#11966-025, Invitrogen) was used.
(§3) Mouse embryonic fibroblasts (MEFs) were isolated from E12.5 embryos and immortalized by stable transfection with SV40 large T antigen.
(In general: Quantitative PCR measures a nucleic acid by following its amplification.)

For assay [2] the test system is unchanged. Kind of assay: PGK mRNA expression (qPCR) in HIF-1α−/− fibroblasts. To be noted: hypoxic conditions (1% O2), 1, 10 and 100 μM, vs. hypoxia control, FIG. 2B. Format: cell-based, murine. On the procedure:
as §1, §2, §3

For a further assay, the system named is Pmel17 mRNA. Kind of assay: Evaluation of lung metastases by Pmel17 mRNA in lungs of B16F10 tumor-bearing mice. In kind it is in vivo. The note with it: stabilizer I.P., GM-CSF I.T., vs vehicle control; FIG. 5. Here is the method:
Lung metastases were evaluated by detection of mRNA for melanocyte-specific proteins within the lungs of tumor-bearing mice. B16F10 tumor-bearing mice were treated with GM-CSF and/or the disclosed HIF-2α stabilizer, as depicted in FIG. 3. At the time of sacrifice, lungs were excised and flash-frozen in liquid nitrogen. Frozen lungs were homogenized in liquid nitrogen and the pulverized material was dissolved in TRIzol™ reagent (Invitrogen). […] The melanocyte-specific Pmel17 was detected by nested PCR using a modification of the protocol described by Tsukamoto et al. For the initial reaction, 30 cycles of PCR were carried out (95° C. for 1 minute, 58° C. for 1 min, 72° C. for 1 min) in a 20 μL reaction volume containing 2 μL of cDNA. […] Data were analyzed according to the comparative threshold method and normalized against the GAPDH internal control transcript. Results are semi-quantitative and represent the fold difference in transcript levels in vehicle-treated control mice as compared with levels in mice treated with the disclosed HIF-2α stabilizer and/or GM-CSF.
Lung metastases were evaluated by detection of mRNA for melanocyte-specific proteins within the lungs of tumor-bearing mice. […] Data were analyzed according to the comparative threshold method and normalized against the β-actin internal control transcript. […]

For a further assay, the system named is VEGF. In words: VEGF production by human peripheral blood monocytes (ELISA, real-time PCR). To be noted: monocytes with GM-CSF and compound vs GM-CSF alone; p=0.556; FIG. 11C. Format: cell-based. On the procedure: Human peripheral blood mononuclear cells (PBMCs) were isolated from fresh peripheral blood leukocyte source packs (American Red Cross, Columbus Ohio) by density gradient centrifugation over Lymphocyte Separation Medium (Cellgro). Monocytes were purified from total PBMCs by layering over FBS. Monocytes were cultured in endotoxin-free RPMI-1640 supplemented with 1% fetal bovine serum (FBS), 0.1% human serum albumin (HSA), and 10 μg/mL of the endotoxin inhibitor polymyxin B. In some experiments, freshly isolated monocytes were differentiated into macrophages by three-day culture in media containing 10% FBS, 1% PSA (penicillin G sodium, streptomycin sulfate, and amphotericin B), and 20 ng/mL M-CSF. Macrophages were serum-starved for 2 hours prior to stimulation. Monocytes or monocyte-derived macrophages were treated for 24 hours with 10 ng/mL GM-CSF, 10 μM disclosed HIF-2α stabilizer, or an equivalent volume of the vehicle controls (PBS or DMSO, respectively). Cell-free culture supematants were harvested and analyzed for VEGF or sVEGFR-1 by ELISA (R&D Systems).
Human monocytes were left untreated or were stimulated with 100 ng/mL GM-CSF at normoxia or at 0.5% O2. At various time-points, cells were harvested in Trizol reagent (Invitrogen) and RNA was extracted in chloroform and then purified using the RNeasy Minikit (Qiagen). In murine studies, organs harvested at the time of euthanasia were flash-frozen in liquid nitrogen, pulverized in liquid nitrogen, and then dissolved in Trizol. cDNA was generated from 1 μg of RNA using the Superscript First Strand Synthesis System (Invitrogen) and used for real-time PCR using previously described primers and SYBR Green PCR Master Mix (Applied Biosciences), according to the manufacturer's instructions. Data were analyzed according to the comparative threshold method and normalized against the β-actin internal control transcript. Results are semi-quantitative and represent the fold difference in transcript levels in a particular sample as compared with levels in untreated cells from the same donor. […]
On the technique in general: ELISA stands for enzyme-linked immunosorbent assay.

For the molecule `O=C(O)CNC(=O)c1ncc(-c2cccc(F)c2)cc1O` [disclosed HIF-2α stabilizer, {[5-(3-Fluorophenyl)-3-hydroxypyridine-2-carbonyl]amino} acetic acid], the “PGK mRNA (relative amount)” value in assay [1] and in assay [2] was “dramatic reduction” each time. The “relative metastasis to the lung (Pmel17 mRNA expression)” value with Pmel17 mRNA is on record as “reduced metastasis”. The VEGF transcript levels result with VEGF is listed as “no difference”.
